Test results published in article PMC8861063, “Increase water solubility of Centellaasiatica extract by indigenous bioenhancers could improve oral bioavailability and disposition kinetics of triterpenoid glycosides in beagle dogs” (Scientific Reports, 2022).

Assays:
[1] = dog, in vivo
From the text: Eight healthy 8-month-old male beagles were obtained from the Chulalongkorn University Laboratory Animal Centre (CULAC), Chulalongkorn University. […] Food was provided twice a day, and water was available ad libitum. […] The animal experiments were approved by the Institutional Animal Care and Use Committee of the CULAC, Chulalongkorn University, Bangkok, Thailand (Protocol number 2073002, Approval date: February 21, 2020). All animal procedures were complied with the ethical principles and guidelines for the use of animals (National Research Council of Thailand, 2015). All animal experiments followed the ARRIVE reporting guidelines for documenting animal experiments.
(§1) One or two capsules containing the test substance were orally administered at 8:00 AM to the dogs following the experimental plan. […] The blood samples were centrifuged at 5000g for 10 min at 4 °C to collect plasma and then stored at − 80 °C until analysis. […] The volume of urine and weight of faeces were recorded and all samples were stored at − 80 °C until analysis. All dogs were reused with a washed out period of two weeks, to allow complete excretion of bioactive triterpenoids.
All biological samples (plasma, urine, and faeces) were subjected to protein precipitation to extract the major triterpenoids from the samples. Two hundred microliters of methanol with two internal standards (glycyrrhizin and glycyrrhetinic acid) was added to 50 µL of the biological sample and mixed for 10 min. Then, the sample was centrifuged at 12,000g for 10 min at 4 °C, and 10 µL of supernatant was injected into the LC–MS/MS system. Faeces samples were homogenised by adding methanol, then the mixture was centrifuged at 1500g for 10 min at 4 °C to collect the supernatant. In the case of the concentration of the biological sample exceeded the linear calibration curve; blank matrices were used to dilute before protein precipitation. For method validation, all major components in the biological sample of dog were determined and validated according to the previous reports with little modification.
The LC–MS/MS system was set up according to a previous published method. In brief, an LCMS-8060 coupled with a triple quadrupole mass spectrometer was controlled by LabSolution software version 5.86 (Shimadzu Corp.). A Synergi Fusion-RP C18 column (Phenomenex Inc.) maintained at 40 °C was used as the stationary phase. The analysis was run using absolute methanol and 0.2% formic acid in water as the mobile phase.
To evaluate significant differences between the pre- and post-dose of the test substances to the health status of dogs, the biochemical data were compared by using Student’s t-test. PK solution software version 2.0 (Summit Research Services) was used to analyse pharmacokinetic parameters by non-compartmental analysis. Cmax and Tmax were directly determined from plasma concentration–time curves. AUC0-24 was calculated using the trapezoidal rule and extrapolated to time infinity by the equation AUC0-inf = AUC0–24 + (Clast/kel), where Clast is the last observed plasma concentration after dosing and kel is the elimination rate constant. MRT was calculated as AUMC0-inf/AUC0-inf, where AUMC0-inf is the area under the first moment concentration–time curve. Vd was equal to dose/C0, where C0 is the plasma concentration at time zero and CL was calculated as dose/AUC0-inf. […] Absolute bioavailability was calculated as (AUCp.o./DOSEp.o.)/(AUCi.v./DOSEi.v.) × 100. Relative bioavailability was calculated from (AUCCTS/DOSECTS)/(AUCECa/DOSEECa) × 100. Before performing the statistical analysis in SPSS version 22.0 (IBM Corp.), the Shapiro–Wilk test was used to determine whether the data were normally distributed. A paired Student’s t test or Wilcoxon signed-rank test was used to determine significant differences of pharmacokinetic parameters between the groups.

[2] = dog, in vivo, iv
Protocol: as §1
All biological samples (plasma, urine, and faeces) were subjected to protein precipitation to extract the major triterpenoids from the samples. […] For method validation, all major components in the biological sample of dog were determined and validated according to the previous reports with little modification. […]
(§2) To evaluate significant differences between the pre- and post-dose of the test substances to the health status of dogs, the biochemical data were compared by using Student’s t-test. […] Cmax and Tmax were directly determined from plasma concentration–time curves. AUC0-24 was calculated using the trapezoidal rule and extrapolated to time infinity by the equation AUC0-inf = AUC0–24 + (Clast/kel), where Clast is the last observed plasma concentration after dosing and kel is the elimination rate constant. […] Absolute bioavailability was calculated as (AUCp.o./DOSEp.o.)/(AUCi.v./DOSEi.v.) × 100. […]

[3] = dog, in vivo; remark: listed apart in the source
Protocol: as §1
as §2, with “constant. MRT was calculated as AUMC0-inf/AUC0-inf, where AUMC0-inf is the area under the first moment concentration–time curve. Vd was equal to dose/C0, where C0 is the plasma concentration at time zero and CL was calculated as dose/AUC0-inf.” for “constant.”, “100. Relative bioavailability was calculated from (AUCCTS/DOSECTS)/(AUCECa/DOSEECa) × 100.” for “100.”

Row | plasma concentration compared with madecassic acid ([1]; po) | AUC0-24 of madecassoside ([1]; iv, 0.46 mg/kg) | AUC0-inf of madecassoside ([1]; iv, 0.46 mg/kg) | Half-life of madecassoside ([1]; iv, 0.46 mg/kg) | MRT of madecassoside ([1]; iv, 0.46 mg/kg) [h] | Vd of madecassoside ([1]; iv, 0.46 mg/kg) [L/kg] | excretion route of parent triterpenoid glycosides [2] | measured biochemical parameters (haematology, kidney, liver functions), pre-dose versus post-dose [3] | SMILES
1 | approximately tenfold higher | – | – | – | – | – | – | – | C[C@H]1[C@H](C)CC[C@]2(C(=O)O)CC[C@]3(C)C(=CC[C@@H]4[C@@]5(C)C[C@@H](O)[C@H](O)[C@@](C)(CO)[C@@H]5CC[C@]43C)[C@H]12 [asiatic acid]
2 | – | 15,662 ± 1927 µg.h/L | 15,705 ± 1938 µg.h/L | 3.88 (0.40) h | 8.05 ± 0.99 | 0.18 ± 0.05 | excreted via urine within 24 h | no significant differences | C[C@H]1[C@H](C)CC[C@]2(C(=O)O[C@@H]3O[C@H](CO[C@@H]4O[C@H](CO)[C@@H](O[C@@H]5O[C@@H](C)[C@H](O)[C@@H](O)[C@H]5O)[C@H](O)[C@H]4O)[C@@H](O)[C@H](O)[C@H]3O)CC[C@]3(C)C(=CC[C@@H]4[C@@]5(C)C[C@@H](O)[C@H](O)[C@@](C)(CO)[C@@H]5[C@H](O)C[C@]43C)[C@H]12 [madecassoside]
